Assay results published in the supplement of paper PMC10307832.

Columns and labels:
Assay in all cases: relative viability (nuclei count vs DMSO), 5 days (fraction); higher = more cells survive
[1] = tested on: NCI-H1793
Method in brief: (§1)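 Relative viability divides the nuclei count in treated wells by that in vehicle wells. Lung cancer cell lines were seeded in 1536-well plates, dosed by pin tool the next day, and fixed and stained after 5 days in one step with final 0.05% Triton X-100, 1% formaldehyde and 1 ug/ml Hoechst. Dosing was a single drug or a fixed anchor-drug dose plus five library-drug doses (not always all listed) in √10 steps, and values are medians of duplicate plates imaged at 4×.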

[2] = tested on: NCI-H838
Method in brief: as §1

[3] = tested on: NCI-H23
Method in brief: as §1

[4] = tested on: LU99A
Method in brief: as §1

[5] = tested on: PC-3 [JPC-3]
Method in brief: as §1

[6] = tested on: BEN
Method in brief: as §1

[7] = tested on: NCI-H2347
Method in brief: as §1

[8] = tested on: NCI-H460
Method in brief: as §1

[9] = tested on: RERF-LC-KJ
Method in brief: as §1

[10] = tested on: LOU-NH91
Method in brief: as §1

[11] = tested on: EKVX
Method in brief: as §1

[12] = tested on: NCI-H1355
Method in brief: as §1

[13] = tested on: LC-2-ad
Method in brief: as §1

[14] = tested on: A-427
Method in brief: as §1

[15] = tested on: LCLC-97TM1
Method in brief: as §1

[16] = tested on: NCI-H650
Method in brief: as §1

[17] = tested on: NCI-H1666
Method in brief: as §1

[18] = tested on: NCI-H1993
Method in brief: as §1

[19] = tested on: NCI-H1915
Method in brief: as §1

`Cc1cnc(-c2cnc(NCCNc3ccc(C#N)cn3)nc2-c2ccc(Cl)cc2Cl)[nH]1` + NC(=O)Nc1cc(-c2cccc(F)c2)sc1C(=O)N[C@H]1CCCNC1 [AZD7762] (partner 0.2 µM) showed a relative viability ([1]; first compound 0.08 µM) of 0.735, a relative viability ([1]; first compound 0.253 µM) of 0.379 and a relative viability ([1]; first compound 0.8 µM) of 0.385. For the same compound, the relative viability ([1]; first compound 2.53 µM) was 0.461, the relative viability ([2]; first compound 0.08 µM) was 0.973 and the relative viability ([2]; first compound 0.253 µM) was 0.919. The relative viability ([2]; first compound 0.8 µM) was 0.941, the relative viability ([2]; first compound 2.53 µM) was 0.983 and the relative viability ([3]; first compound 0.08 µM) was 0.313. For the same compound, the relative viability ([3]; first compound 0.253 µM) was 0.16, the relative viability ([3]; first compound 0.8 µM) was 0.247 and the relative viability ([3]; first compound 2.53 µM) was 0.256. For the same compound, the relative viability ([4]; first compound 0.08 µM) was 0.393, the relative viability ([4]; first compound 0.253 µM) was 0.368 and the relative viability ([4]; first compound 0.8 µM) was 0.333. The relative viability ([4]; first compound 2.53 µM) was 0.389, the relative viability ([5]; first compound 0.08 µM) was 0.805 and the relative viability ([5]; first compound 0.253 µM) was 0.761. For the same compound, the relative viability ([5]; first compound 0.8 µM) was 0.799, the relative viability ([5]; first compound 2.53 µM) was 0.725 and the relative viability ([6]; first compound 0.08 µM) was 0.714. It also gave a relative viability ([6]; first compound 0.253 µM) of 0.699, a relative viability ([6]; first compound 0.8 µM) of 0.726 and a relative viability ([6]; first compound 2.53 µM) of 0.736. It also gave a relative viability ([7]; first compound 0.08 µM) of 0.873, a relative viability ([7]; first compound 0.253 µM) of 0.612 and a relative viability ([7]; first compound 0.8 µM) of 0.689. It also gave a relative viability ([7]; first compound 2.53 µM) of 0.79, a relative viability ([8]; first compound 0.08 µM) of 0.579 and a relative viability ([8]; first compound 0.8 µM) of 0.557. The relative viability ([8]; first compound 2.53 µM) was 0.541, the relative viability ([9]; first compound 0.08 µM) was 1.08 and the relative viability ([9]; first compound 0.253 µM) was 0.801. For the same compound, the relative viability ([9]; first compound 0.8 µM) was 0.881, the relative viability ([9]; first compound 2.53 µM) was 0.985 and the relative viability ([10]; first compound 0.08 µM) was 0.823. It also gave a relative viability ([10]; first compound 0.253 µM) of 0.753, a relative viability ([10]; first compound 0.8 µM) of 0.768 and a relative viability ([10]; first compound 2.53 µM) of 0.83. The relative viability ([11]; first compound 0.08 µM) was 0.731, the relative viability ([11]; first compound 0.253 µM) was 0.698 and the relative viability ([11]; first compound 0.8 µM) was 0.588. It also gave a relative viability ([11]; first compound 2.53 µM) of 0.655, a relative viability ([12]; first compound 0.08 µM) of 0.831 and a relative viability ([12]; first compound 0.253 µM) of 0.624. The relative viability ([12]; first compound 0.8 µM) was 0.691, the relative viability ([12]; first compound 2.53 µM) was 0.577 and the relative viability ([13]; first compound 0.08 µM) was 0.851. The relative viability ([13]; first compound 0.8 µM) was 0.687, the relative viability ([13]; first compound 2.53 µM) was 0.841 and the relative viability ([14]; first compound 0.08 µM) was 0.838. It also gave a relative viability ([14]; first compound 0.253 µM) of 0.602, a relative viability ([14]; first compound 0.8 µM) of 0.692 and a relative viability ([14]; first compound 2.53 µM) of 0.714. The relative viability ([15]; first compound 0.08 µM) was 0.269, the relative viability ([15]; first compound 0.253 µM) was 0.186 and the relative viability ([15]; first compound 0.8 µM) was 0.15. It also gave a relative viability ([15]; first compound 2.53 µM) of 0.235, a relative viability ([16]; first compound 0.08 µM) of 0.979 and a relative viability ([16]; first compound 0.253 µM) of 0.872. It also gave a relative viability ([16]; first compound 0.8 µM) of 0.892, a relative viability ([16]; first compound 2.53 µM) of 1.03 and a relative viability ([17]; first compound 0.08 µM) of 0.852. For the same compound, the relative viability ([17]; first compound 0.253 µM) was 0.864, the relative viability ([17]; first compound 0.8 µM) was 0.838 and the relative viability ([17]; first compound 2.53 µM) was 0.78. For the same compound, the relative viability ([18]; first compound 0.08 µM) was 0.918, the relative viability ([18]; first compound 0.253 µM) was 0.683 and the relative viability ([18]; first compound 0.8 µM) was 0.703. The relative viability ([18]; first compound 2.53 µM) was 0.9, the relative viability ([19]; first compound 0.08 µM) was 0.692 and the relative viability ([19]; first compound 0.8 µM) was 0.675. It also gave a relative viability ([19]; first compound 2.53 µM) of 0.644.
